Patent US20150284362A1, “CARBAZOLE-CONTAINING AMIDES, CARBAMATES, AND UREAS AS CRYPTOCHROME MODULATORS” (ReSet Therapeutics, Inc., priority 2014, published 2015)

Test system: Dbp mRNA in whole blood
Test: Dbp mRNA in whole blood of db/db mice after three daily doses
Format: in vivo, mouse
Settings: 100 mg/kg PO once daily for three days at ZT0, blood at ZT7.5
Protocol: For whole blood RNA studies, male db/db mice (9 weeks of age, The Jackson Laboratory, Bar Harbor, Me.) were used for the experiment with n=8 mice for each experimental group. […] On the final day at ZT7.5 (2:30 pm), animals were euthanized using CO2 asphyxiation, and the blood collected from the heart via cardiac puncture. The blood was placed in RNALater solution to 1.5 ml total volume. Total RNA was prepared using an Ambion Mouse RiboPure Blood RNA Isolation Kit AM1951 as follows. Samples were centrifuged for 3 minutes, discarding the supernatant. Two ml of lysis solution was added and vortexed, transferred to a 15 ml tube followed by the addition of microliters 3M Sodium Acetate. […]
RediPlate 96 RiboGreen RNA Quantification Kit (Invitrogen) RediPlate standard curve was prepared by transferring 20 μl reconstituted RNA standard to a RediPlate well reconstituted in 180 μl RediPlate TE buffer. […] After transferring 5 μl to RediPlate well reconstituted in 195 μl TE buffer and incubating 10 min. at RT, Fluorescence Intensity of wells with standards and samples were read in a Tecan M200 with Excitation set at 480 nm and Emission set at 520 nm with the gain set to ˜70%. […] A standard curve was generated in GraphPad Prism and sample readings (unknowns) are interpolated via linear regression analysis, and the RNA sample concentrations were calculated. […]

O=C1NCCN1CC(O)Cn1c2ccc(F)cc2c2cc(F)ccc21 (stereo not shown) [Compound 72, 1-(3-(3,6-difluoro-9H-carbazol-9-yl)-2-hydroxypropyl)imidazolidin-2-one]
Dbp gene expression in whole blood: statistically significant suppression
